Activity calls are given as the source filed them. No cut-off for these calls is given here.
What was measured:
RAW264.7 [1] = test: Inhibition of LPS-induced COX2 protein expression in mouse RAW264.7 cells at 20 uM after 24 hrs by Western blotting; assay type: functional, cell-based
RAW264.7 [2] = test: Inhibition of LPS-induced COX2 gene expression in mouse RAW264.7 cells at 20 uM after 24 hrs by RT-PCR; assay type: functional, cell-based
RAW264.7 [3] = test: Inhibition of LPS-induced COX2 protein expression in mouse RAW264.7 cells at 5 uM after 24 hrs by Western blotting; assay type: functional, cell-based
RAW264.7 [4] = test: Antiinflammatory activity in mouse RAW264.7 cells assessed as inhibition of LPS-induced nitric oxide production at 10 uM after 24 hrs; assay type: functional, cell-based
RAW264.7 [5] = test: Antiinflammatory activity in mouse RAW264.7 cells assessed as inhibition of LPS-induced nitric oxide production at 30 uM after 24 hrs; assay type: functional, cell-based
RAW264.7 [6] = test: Inhibition of LPS-induced iNOS protein expression in mouse RAW264.7 cells at 5 uM after 24 hrs by Western blotting; assay type: functional, cell-based
RAW264.7 [7] = test: Inhibition of LPS-induced iNOS gene expression in mouse RAW264.7 cells at 20 uM after 24 hrs by RT-PCR; assay type: functional, cell-based
RAW264.7 [8] = test: Inhibition of LPS-induced iNOS protein expression in mouse RAW264.7 cells at 20 uM after 24 hrs by Western blotting; assay type: functional, cell-based
RAW264.7 [9] = test: Cytotoxicity against mouse RAW264.7 cells at 30 uM by MTT assay; assay type: cell-based; conditions: raw264.7, 30 µM

COc1c(OC)c(OC)c2c(=O)cc(-c3ccc(O)c(O)c3)oc2c1OC
Activity (RAW264.7 [1]): Active | Activity (RAW264.7 [2]): Active | Activity (RAW264.7 [3]): Active | Activity (RAW264.7 [4]): Active | Activity (RAW264.7 [5]): Active | Activity (RAW264.7 [6]): Active | Activity (RAW264.7 [7]): Active | Activity (RAW264.7 [8]): Active | Activity (RAW264.7 [9]): Non-toxic

COc1ccc(-c2cc(=O)c3c(OC)c(OC)c(OC)c(OC)c3o2)cc1OC [NOBILETIN]
Activity (RAW264.7 [4]): inactive | Activity (RAW264.7 [5]): inactive | Activity (RAW264.7 [9]): Non-toxic

COc1ccc(-c2cc(=O)c3c(OC)c(OC)c(OC)c(OC)c3o2)cc1O
Activity (RAW264.7 [4]): Active | Activity (RAW264.7 [5]): Active | Activity (RAW264.7 [6]): inactive | Activity (RAW264.7 [7]): inactive | Activity (RAW264.7 [8]): inactive | Activity (RAW264.7 [9]): Non-toxic

COc1cc(-c2cc(=O)c3c(OC)c(OC)c(OC)c(OC)c3o2)ccc1O
Activity (RAW264.7 [1]): Active | Activity (RAW264.7 [2]): Active | Activity (RAW264.7 [3]): Active | Activity (RAW264.7 [4]): Active | Activity (RAW264.7 [5]): Active | Activity (RAW264.7 [6]): Active | Activity (RAW264.7 [7]): Active | Activity (RAW264.7 [8]): Active | Activity (RAW264.7 [9]): Non-toxic

Source: ChEMBL document CHEMBL1139771, “Anti-inflammatory property of the urinary metabolites of nobiletin in mouse” (Bioorg Med Chem Lett, 2007)
